Measured values taken from ChEMBL document CHEMBL1201862, “PubChem BioAssay data set” (2004).
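Values below derive from 48-hour exposures of cells grown in 96-well plates, with endpoints linearly interpolated between the two concentrations bracketing the appropriate inhibition level. At the GI50, growth is halved.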 Activity calls are given as the source filed them. No stated cut-off is given here; in the data, active = GI50 up to about 1.1 µM and inactive = higher.

Legend:
Assay in all cases: NCI anticancer screen, dose series, 48 h
SNB-75 = test system: SNB-75
LXFL 529 = test system: LXFL 529
HCT-116 = test system: HCT-116
UO-31 = test system: UO-31
IGROV-1 = test system: IGROV-1
HCT-15 = test system: HCT-15
Malme-3M = test system: Malme-3M
ACHN = test system: ACHN
NCI-H23 = test system: NCI-H23
OVCAR-5 = test system: OVCAR-5
OVCAR-3 = test system: OVCAR-3
RPMI-8226 = test system: RPMI-8226
UACC-62 = test system: UACC-62
HCC 2998 = test system: HCC 2998
KM12 = test system: KM12
786-0 = test system: 786-0
SN12C = test system: SN12C
EKVX = test system: EKVX
M14 = test system: M14
NCI-H226 = test system: NCI-H226
K562 = test system: K562
SNB-78 = test system: SNB-78
A549 = test system: A549
UACC-257 = test system: UACC-257
M19-MEL = test system: M19-MEL
DMS-114 = test system: DMS-114
OVCAR-8 = test system: OVCAR-8
U-251 = test system: U-251
HOP-62 = test system: HOP-62
KM-20L2 = test system: KM-20L2
HL-60 = test system: HL-60
SNB-19 = test system: SNB-19
SW-620 = test system: SW-620
NCI-H460 = test system: NCI-H460
HOP-92 = test system: HOP-92
HT-29 = test system: HT-29
A498 = test system: A498
COLO 205 = test system: COLO 205
DLD-1 = test system: DLD-1
HOP-18 = test system: HOP-18
MOLT-4 = test system: MOLT-4
CCRF-CEM = test system: CCRF-CEM
SF-268 = test system: SF-268
RXF 393 = test system: RXF 393
SK-MEL-2 = test system: SK-MEL-2
DMS-273 = test system: DMS-273
SK-OV-3 = test system: SK-OV-3
LOX IMVI = test system: LOX IMVI
SK-MEL-28 = test system: SK-MEL-28
DU-145 = test system: DU-145
BT-549 = test system: BT-549
CAKI-1 = test system: CAKI-1
SK-MEL-5 = test system: SK-MEL-5
TK-10 = test system: TK-10
MCF7 = test system: MCF7
OVCAR-4 = test system: OVCAR-4
SF-295 = test system: SF-295
T47D = test system: T47D
SF-539 = test system: SF-539
MDA-MB-231 = test system: MDA-MB-231
Hs-578T = test system: Hs-578T
MDA-N = test system: MDA-N
NCI/ADR-RES = test system: NCI/ADR-RES
SR = test system: SR
NCI-H522 = test system: NCI-H522
PC-3 = test system: PC-3
MDA-MB-435 = test system: MDA-MB-435

COc1cccc(C2CC(C)=Nc3c(ccc4c3C(=O)c3ccccc3C4=O)N2)c1O (centres undefined)
GI50 (SNB-75): > 100 µM (inactive)
GI50 (LXFL 529): > 100 µM (inactive)
GI50 (HCT-116): > 100 µM (inactive)
GI50 (UO-31): 33 µM (inactive)
GI50 (IGROV-1): > 100 µM (inactive)
GI50 (HCT-15): 26.9 µM
GI50 (Malme-3M): > 100 µM (inactive)
GI50 (ACHN): 9.46 µM (inactive)
GI50 (NCI-H23): > 100 µM (inactive)
GI50 (OVCAR-5): > 100 µM (inactive)
GI50 (OVCAR-3): 9.71 µM (inactive)
GI50 (RPMI-8226): 79.3 µM (inactive)
GI50 (UACC-62): > 100 µM (inactive)
GI50 (HCC 2998): > 100 µM (inactive)
GI50 (KM12): 3.59 µM (inactive)
GI50 (786-0): > 100 µM (inactive)
GI50 (SN12C): > 100 µM (inactive)
GI50 (EKVX): > 100 µM (inactive)
GI50 (M14): 9.2 µM (inactive)
GI50 (NCI-H226): 33.6 µM (inactive)
GI50 (K562): > 100 µM (inactive)
GI50 (SNB-78): > 100 µM (inactive)
GI50 (A549): > 100 µM (inactive)
GI50 (UACC-257): 3 µM (inactive)
GI50 (M19-MEL): 9.62 µM (inactive)
GI50 (DMS-114): > 100 µM (inactive)
GI50 (OVCAR-8): 4.94 µM (inactive)
GI50 (U-251): 3.78 µM (inactive)
GI50 (HOP-62): 3.24 µM (inactive)
GI50 (KM-20L2): > 100 µM (inactive)
GI50 (HL-60): 5.41 µM (inactive)
GI50 (SNB-19): > 100 µM (inactive)
GI50 (SW-620): 20.5 µM (inactive)
GI50 (NCI-H460): 7.52 µM (inactive)
GI50 (HOP-92): > 100 µM (inactive)
GI50 (HT-29): > 100 µM (inactive)
GI50 (A498): > 100 µM (inactive)
GI50 (COLO 205): > 100 µM (inactive)
GI50 (DLD-1): 15 µM (inactive)

CN(O)C(=O)SCC(NC(=O)CCC(N)C(=O)O)C(=O)NCC(=O)O (centres undefined)
GI50 (HOP-18): 619 µM (inactive)
GI50 (MOLT-4): 1100 µM (inactive)
GI50 (SNB-75): 618 µM (inactive)
GI50 (CCRF-CEM): 1.67 µM (inactive)
GI50 (HCT-15): 24.3 µM
GI50 (SF-268): 1630 µM (inactive)
GI50 (RXF 393): 518 µM (inactive)
GI50 (SK-MEL-2): 446 µM (inactive)
GI50 (RPMI-8226): 964 µM (inactive)
GI50 (KM12): 1050 µM (inactive)
GI50 (K562): 305 µM (inactive)
GI50 (DMS-273): 1.52 µM (inactive)
GI50 (U-251): 41.7 µM (inactive)
GI50 (SK-OV-3): 294 µM (inactive)
GI50 (HOP-62): 173 µM (inactive)
GI50 (HL-60): 318 µM (inactive)
GI50 (SW-620): 1760 µM (inactive)
GI50 (NCI-H460): 783 µM (inactive)
GI50 (HOP-92): 294 µM (inactive)
GI50 (HT-29): 1.31 µM (inactive)
GI50 (LOX IMVI): 1.46 µM (inactive)

c1ccc(CCN(Cc2nc3ccccc3[nH]2)Cc2nc3ccccc3[nH]2)cc1
GI50 (MOLT-4): 6.59 µM (inactive)
GI50 (SNB-75): 16.4 µM (inactive)
GI50 (SK-MEL-28): 13.7 µM (inactive)
GI50 (DU-145): 14.4 µM (inactive)
GI50 (BT-549): 12.1 µM (inactive)
GI50 (CAKI-1): 3.85 µM (inactive)
GI50 (CCRF-CEM): 3.39 µM (inactive)
GI50 (HCT-116): 4.67 µM (inactive)
GI50 (UO-31): 10.9 µM (inactive)
GI50 (IGROV-1): 8.15 µM (inactive)
GI50 (SK-MEL-5): 3.86 µM (inactive)
GI50 (HCT-15): 7.45 µM
GI50 (SF-268): 13.6 µM (inactive)
GI50 (RXF 393): 13.3 µM (inactive)
GI50 (TK-10): 16.3 µM (inactive)
GI50 (Malme-3M): 21.6 µM (inactive)
GI50 (ACHN): 4.79 µM (inactive)
GI50 (NCI-H23): 16 µM (inactive)
GI50 (OVCAR-5): 23.8 µM (inactive)
GI50 (OVCAR-3): 20.2 µM (inactive)
GI50 (SK-MEL-2): 18 µM (inactive)
GI50 (RPMI-8226): 3.05 µM (inactive)
GI50 (UACC-62): 13.4 µM (inactive)
GI50 (MCF7): 11.7 µM (inactive)
GI50 (HCC 2998): 16.9 µM (inactive)
GI50 (KM12): 12.3 µM (inactive)
GI50 (786-0): 15.9 µM (inactive)
GI50 (SN12C): 14.6 µM (inactive)
GI50 (EKVX): 39.1 µM (inactive)
GI50 (M14): 12.9 µM (inactive)
GI50 (NCI-H226): 27.6 µM (inactive)
GI50 (K562): 2.86 µM (inactive)
GI50 (OVCAR-4): 17.5 µM (inactive)
GI50 (A549): 17.1 µM (inactive)
GI50 (UACC-257): 14.5 µM (inactive)
GI50 (OVCAR-8): 6.18 µM (inactive)
GI50 (SF-295): 14.8 µM (inactive)
GI50 (T47D): 1.79 µM (inactive)
GI50 (U-251): 6.59 µM (inactive)
GI50 (SF-539): 20.7 µM (inactive)
GI50 (MDA-MB-231): 13.2 µM (inactive)
GI50 (Hs-578T): 20.2 µM (inactive)
GI50 (SK-OV-3): 24.4 µM (inactive)
GI50 (HOP-62): 11.3 µM (inactive)
GI50 (MDA-N): 16.2 µM (inactive)
GI50 (HL-60): 2.41 µM (inactive)
GI50 (NCI/ADR-RES): 5.93 µM (inactive)
GI50 (SNB-19): 16.2 µM (inactive)
GI50 (SR): 9.27 µM (inactive)
GI50 (SW-620): 10.3 µM (inactive)
GI50 (NCI-H460): 10 µM (inactive)
GI50 (HOP-92): 12.5 µM (inactive)
GI50 (HT-29): 17.3 µM (inactive)
GI50 (NCI-H522): 17 µM (inactive)
GI50 (PC-3): 11.5 µM (inactive)
GI50 (A498): 13.6 µM (inactive)
GI50 (COLO 205): 13.4 µM (inactive)
GI50 (LOX IMVI): 10.1 µM (inactive)
GI50 (MDA-MB-435): 12.4 µM (inactive)
